For one assay, the species on record is Cavia porcellus. The experiment in a line: Compound was tested for the ability to relax histamine induced contraction of isolated trachea. The class given is functional.
Assay [1] deals with Beta-1 adrenergic receptor (Homo sapiens, UniProt P08588).
Description: Compound was tested for its binding affinity to human Beta-1 adrenergic receptor by using the radioligand [3H]CGP-12177
Assay [2] has as its target Beta-2 adrenergic receptor (Homo sapiens, UniProt P07550).
Description: Compound was tested for its binding affinity to human Beta-2 adrenergic receptor by using the radioligand [3H]CGP-12177

Chain of Beta-2 adrenergic receptor (P07550 whole entry): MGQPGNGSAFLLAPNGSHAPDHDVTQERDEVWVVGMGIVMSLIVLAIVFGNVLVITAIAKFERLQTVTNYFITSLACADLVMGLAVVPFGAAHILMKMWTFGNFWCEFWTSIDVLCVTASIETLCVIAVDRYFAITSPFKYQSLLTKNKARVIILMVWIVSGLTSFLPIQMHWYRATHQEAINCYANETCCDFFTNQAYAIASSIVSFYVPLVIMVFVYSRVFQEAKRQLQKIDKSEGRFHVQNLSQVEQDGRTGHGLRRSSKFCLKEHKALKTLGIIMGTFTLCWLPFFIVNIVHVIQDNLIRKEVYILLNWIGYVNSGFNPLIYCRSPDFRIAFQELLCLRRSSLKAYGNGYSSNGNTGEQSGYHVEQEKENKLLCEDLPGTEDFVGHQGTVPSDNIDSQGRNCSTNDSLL
Chain of Beta-1 adrenergic receptor (P08588 whole entry): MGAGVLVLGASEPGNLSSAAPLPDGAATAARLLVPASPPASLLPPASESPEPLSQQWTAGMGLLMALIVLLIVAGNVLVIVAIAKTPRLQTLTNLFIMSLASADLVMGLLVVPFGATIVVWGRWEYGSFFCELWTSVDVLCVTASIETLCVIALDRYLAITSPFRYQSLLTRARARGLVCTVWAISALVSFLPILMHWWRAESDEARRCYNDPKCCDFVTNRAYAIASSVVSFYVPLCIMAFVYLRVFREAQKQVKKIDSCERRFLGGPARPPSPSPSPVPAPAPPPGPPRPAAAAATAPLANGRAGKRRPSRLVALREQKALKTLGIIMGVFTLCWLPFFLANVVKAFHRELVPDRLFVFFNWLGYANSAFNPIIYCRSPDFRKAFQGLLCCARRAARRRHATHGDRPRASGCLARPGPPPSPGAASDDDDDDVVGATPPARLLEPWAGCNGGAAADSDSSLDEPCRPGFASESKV

One may read the Kd as the equilibrium constant for the complex coming apart. A low value points to tighter binding. In the assay listed under Cavia porcellus, `CNCC(O)c1ccc(O)c2nc(O)sc12` (centres undefined) showed a pD2 of 10.6. In addition, the Kd amounted to 120 nM in assay [1] and 51 nM in assay [2].

`CNCC(O)c1ccc(OC)c2c1sc(=O)n2C` (centres undefined): the pD2 in the assay listed under Cavia porcellus is recorded as 7.08.
